Experimental data: patent US6423737B1, “Benzamidoxime prodrugs as antipneumocystic agents” (The University of North Carolina at Chapel Hill, priority 1995, dated 2002)
Entries after “also recorded” stand apart in the source; their conditions may differ.

Assays:
[1] = system: Pneumocystis carinii; conditions: cited from earlier work; for intravenous activity of diamidines (in words): previously evaluated by a different score method; for mean histological score, IV DOSING: tail vein injection daily for 14 days @ 10 mg/kg, scores range from 0.5 (low infection) to 4.0
[2] = system: Pneumocystis carinii; assay: Anti-P. carinii activity in immunosuppressed rat model (lung cyst counts); format: in vivo, Sprague-Dawley rats; conditions: for anti-P. carinii activity when given orally (in words): Formula I series, orally by gavage once daily for 14 days; for % saline, ORAL DOSING: oral by gavage daily for 14 days @33 μmol/kg body weight; for % saline, IV DOSING: tail vein injection daily for 14 days at 22 mg/kg body weight; for activity on oral administration, furan series (in words): orally by gavage
Experimental: The activity of the compounds of Formula I against P. carinii was carried out according to an established method. See Tidwell, R. R., et al., J. Protozool. […] Agents Chemother. […] Agents Chemother. […] Briefly, male Sprague-Dawley rats (barrier raised, not certified virus-free) weighing 150-200 g each, were obtained (Hilltop Laboratories, Scottsdale, Pa.). Immediately upon arrival, the animals were caged individually and begun on a low protein (8%) diet and on drinking water containing tetracycline (0.5 mg/mL) and dexamethasone (1.0 μ/mL). This regimen was continued for eight weeks. At the beginning of the seventh week, animals were divided into groups of 8 or more, and the test compounds were administered for 14 days. Saline and pentamidine-treated groups were included as controls.
Animals were sacrificed at the end of the eighth week by chloroform inhalation. The left lung was weighed, ground through a No. 60 wire mesh screen, and suspended 1:10 (wt/vol) in 10 mM β-mercaptoethanol-Hanks' balanced salts solution (HBSS) without cations. Slides were prepared by spotting 5 μL of lung homogenate diluted 1:10 in HBSS with β-mercaptoethanol and allowed to air dry. The slides were stained with cresyl violet, and the cysts were counted by a blinded protocol. The number of cysts per gram of original lung tissue was calculated, and the groups were reported as the percentages of saline-treated controls.
The anti-P. carinii value for each compound is expressed as the percent of cysts in the treatment group as compared to the saline control group. Values are also compared to a positive control group consisting of animals treated intravenously with pentamidine.

[3] = Acute toxicity of single doses in normal rats; format: in vivo; conditions: normal rats; for time after injection to recovery / persistence of symptoms: single IV 20 μmol/kg; for relative acute toxicity among the diamidines: single IV injection
[4] = Subjective scale of toxicity and tolerance during treatment in the immunosuppressed rat model; conditions: for Toxicity, IV DOSING / Toxicity, ORAL DOSING: subjective scale; for acute toxicity generally noted for diamidines, on intravenous administration: immunosuppressed rat model
Text: ^b subjective scale of toxicity. […] In general, the larger the value the more severe the toxicity, with values greater than 2 indicating the death of some animals

[5] = system: BRL 3A hepatocytes; assay: Metabolism in intact cultured cells (HPLC of culture supernatants); format: in vitro ADME; conditions: 10 μM substrate, 24 hours, 37EC; extracellular medium assayed; FIG. 4
Experimental: Metabolic experiments with intact cultured cells were performed using the BRL 3A hepatocyte line, obtained from the UNC-Chapel Hill Lineberger Tissue Culture Facility. Cells were routinely cultured in Costar (Cambridge, Mass.) 25 cm^2 of tissue culture flasks at 37EC under moist 5% CO2 and 95% air in Ham's F-12 medium (Gibco, Gaithersburg, Md.) containing 5% fetal bovine serum (HyClone Laboratories Inc., Logan, Utah). Confluent cultures were treated with 0.25% trypsin solution (Sigma Chemical Co., ST. Louis Mo.), then approximately 2×10^5 cells/well subcultured into Costar 6-well tissue culture chambers and the cells allowed to grow to confluency. Ten mL fresh medium was added to each culture well and incubations were started by adding 100 μL amidoxime solution (prepared in sterile water) to a final concentration of 10 μM. Cell cultures were incubated at 37EC under moist 5% CO2 and 95% air for 24 hours, then aliquots of culture supernatants extracted and assayed for metabolites as described below. Similar metabolic experiments were performed with cultured J774 A.1 mouse monocyte-macrophage cells cultured in DMEM F-12 medium containing 10% fetal bovine serum and H9c2 rat heart myoblast cells cultured in DMEM H medium containing 10% fetal bovine serum.
(§1) Samples were extracted using solid phase extraction and assayed using high performance liquid chromatography (HPLC) by methods similar to those previously described in Berger et al. (1992) and Berger et al., (1991), supra. Briefly, samples spiked with 2,5-bis[4-(N-isopropylamidino)phenyl]furan dihydrochloride as the internal standard (IS) were extracted over activated C18 Bond Elut cartridges (Varian Associates, Sunnydale, Calif.), washed with water, 100% acetonitrile, then eluted with 75% acetonitrile/25% water containing 15 mm triethylamine and 35 mM acetic acid. The diamidoxime substrates elute in the 100% acetonitrile phase, while mono-amidine and diamidine products elute in the acetonitrile/water mixture containing triethylamine and acetic acid. Elutes were evaporated to dryness at 40EC under a gentle stream of nitrogen and resuspended in HPLC grade water.
Compounds were resolved using a Hewlett-Packard (Avondale, Pa.) model 1090 HPLC equipped with a HP 1050 variable wavelength detector set at 265 nm, a 4.6×250 mm Zorbax RX diisopropyl C8 column (Mac-Mod, Chadd's Ford, PA) maintained at 40EC and a Vectra 486/66U computer with HP Chemstations software. […] Quantities of metabolites formed were calculated, using peak area rations of authentic standard, from standard addition curves generated by spiking standards into tissue homogenates or tissue culture medium.

[6] = In vitro metabolism by rat tissue homogenate 9000×g supernatants (HPLC); format: in vitro ADME; conditions: 167 μM substrate plus cofactor solution, 37EC, 10 minutes; FIG. 1
Experimental: In vitro metabolism of diamidoximes 1, 3, 5, and 7 by rat liver homogenate 9000×g supernatants, post-mitochondrial 105,000×g supernatants or microsomal fractions were performed as previously described in B. J. Berger et al., Antimicrob. Agents and Chemotherapy 36, 1825-1831 (1992); B. J. Berger et al., J. Pharmacol. Experimental Therapeutics 256, 883-89 (1991). Briefly, adult male Sprague-Dawley rats, barrier raised, (Hilltop Laboratories, Scottsdale, Pa.) animals were given water and rat chow (Agway, Syracuse, N.Y.) ad libitum. The rats were euthanized by decapitation, the livers removed immediately, rinsed with 50 mM potassium phosphate buffer, pH 7.4, and placed on ice. All subsequent steps were performed at 4EC. The livers were minced, homogenized, and 9000×g supernatants, 105,000×g or 105,000×g microsomal pellets prepared. Each fraction was assayed for protein content as described in M. M. Bradford, Anal. Biochem. 72, 248-254 (1976) and stored at −80EC. Fractions from the rat kidneys, lungs, hearts and brains were prepared similarly.
Reaction mixtures consisted of 1.5 mL 50 mM potassium phosphate buffer, pH 7.4, 0.5 mL cofactor solution (2 mg/mL NADPH, 1.6 mg/mL MgCl2, 1.04 mg/mL glucose-6-phosphate and 2 units/mL glucose-6-phosphate dehydrogenase in 50 mM potassium phosphate buffer pH 7.4), 0.5 mL tissue homogenate and 0.5 mL of the appropriate diamidoxime substrate at a concentration of 167 μM. Reactions were started by adding substrate, then mixtures were incubated at 37EC in a shaking water bath for times shown in the figures. Reactions were terminated by extracting over C18 cartridges and assaying as described below.
as §1
Compounds were resolved using a Hewlett-Packard (Avondale, Pa.) model 1090 HPLC equipped with a HP 1050 variable wavelength detector set at 265 nm, a 4.6×250 mm Zorbax RX diisopropyl C8 column (Mac-Mod, Chadd's Ford, PA) maintained at 40EC and a Vectra 486/66U computer with HP Chemstations software. The mobile phase consisted of 15 mM triethylamine and 35 mM acetic acid in HPLC grade water for pump A, and 15 mM triethylamine and 35 mM acetic acid in 75% acetonitrile in water for pump B. The solvent flow rate was 1.5 mL/min, and the solvent gradient ran from 0% B to 25% B at 22 min, to 40% B at 25 min, then 90% B at 35 min. All solvents and reagents used for the assays were HPLC grade. Quantities of metabolites formed were calculated, using peak area rations of authentic standard, from standard addition curves generated by spiking standards into tissue homogenates or tissue culture medium.

[7] = 22.0 μmol/kg/day, values greater than 2 indicate death of some animals

COc1cc(C(=N)N)ccc1OCCCOc1ccc(C(=N)N)cc1OC [Compound 8, 1,3-bis(2′-methoxy-4′-amidinophenoxy)propane, reference compound]
intravenous activity of diamidines (in words) [1]: previously shown to have intravenous activity | anti-P. carinii activity when given orally (in words) [2]: significant oral activity | observed acute toxicity after single intravenous injection ([3]; 10 μmol/kg): perceptible hypoactivity | time after injection to recovery / persistence of symptoms [3]: > 15 min | relative acute toxicity among the diamidines [3]: even more acutely toxic than the other two diamidines tested

N=C(N)c1ccc(OCCCCCOc2ccc(C(=N)N)cc2)cc1 [Compound 2, 1,5-bis(4′-amidinophenoxy)pentane, reference compound]
mean histological score, IV DOSING [1]: 1.1 | % saline, ORAL DOSING ([2]; Table 2): 133.09 % saline | % saline, IV DOSING ([2]; Table 2): 0.87 % saline | % saline, ORAL DOSING ([2]; Table 3): 133.09 % saline | observed acute toxicity after single intravenous injection ([3]; 20 μmol/kg): appeared hypotensive, with rapid paling of extremities, hypoactivity and dyspnea, which progressed to slight cyanosis of extremities | observed acute toxicity after single intravenous injection ([3]; 40 μmol/kg): immediate sever hind limb contractions, increased salivation, dyspnea, initial paling of extremities which progressed to marked cyanosis and profound hypoactivity | time after injection to recovery / persistence of symptoms [3]: ≤ 5 min

CCON=C(N)c1ccc(-c2ccc(-c3ccc(C(N)=NOCC)cc3)o2)cc1 [Compound 12, 2,5-bis-[4-amidinophenyl]furanbis-O-ethylamidoxime]
Toxicity, IV DOSING [4, 7]: +1 | Toxicity, ORAL DOSING ([4]; 33.0 μmol/kg/day): 0

CON=C(N)c1ccc(-c2ccc(-c3ccc(C(N)=NOC)cc3)o2)cc1 [Compound 11, 2,5-bis-[4-amidinophenyl]furanbis-O-methylamidoxime]
Toxicity, IV DOSING [4, 7]: 0 | tolerance at the injection site ([4]; intravenous, 22.0 μmol/kg/day): well-tolerated | acute toxicity generally noted for diamidines, on intravenous administration ([4]; intravenous): absent | Toxicity, ORAL DOSING ([4]; 5.5 μmol/kg/day): 0 | Toxicity, ORAL DOSING ([4]; 11.0 μmol/kg/day): 0 | Toxicity, ORAL DOSING ([4]; 22.0 μmol/kg/day): 0 | Toxicity, ORAL DOSING ([4]; 33.0 μmol/kg/day): 0 | activity on oral administration, furan series (in words) ([2]; immunosuppressed rat model): effective; also recorded: more effective than the bis-amidoxime 10 | drug uptake on oral dosage (suggested by the values for the cyst counts) ([2]; oral dosage, immunosuppressed rat model): superior to that of the parent compound 9

N=C(N)c1ccc(OCCCCOc2ccc(C(=N)N)cc2)cc1 [Compound 4, 1,4-bis(4′-amidinophenoxy)butane, reference compound]
intravenous activity of diamidines (in words) [1]: previously shown to have intravenous activity | mean histological score, IV DOSING [1]: 0.5 | anti-P. carinii activity when given orally (in words) [2]: reduced or no anti-P. carinii activity | % saline, ORAL DOSING ([2]; Table 3): 46.03 % saline

NC(=NO)c1ccc(-c2ccc(-c3ccc(C(N)=NO)cc3)o2)cc1 [Compound 10, 2,5-bis-[4-amidinophenyl]furanbis-amidoxime]
Toxicity, IV DOSING ([4]; 0.3 μmol/kg/day): 0 | Toxicity, IV DOSING ([4]; 2.7 μmol/kg/day): 0 | Toxicity, IV DOSING ([4]; 5.5 μmol/kg/day): +1 | Toxicity, IV DOSING ([4]; 11.0 μmol/kg/day): +1 | Toxicity, IV DOSING [4, 7]: +1 | inflammation and necrosis at the injection site ([4]; intravenous, 5.5 μmol/day): considerable inflammation and necrosis of the tail vein at the injection site | acute toxicity generally noted for diamidines, on intravenous administration ([4]; intravenous): absent | Toxicity, ORAL DOSING ([4]; 5.5 μmol/kg/day): 0 | Toxicity, ORAL DOSING ([4]; 11.0 μmol/kg/day): 0 | Toxicity, ORAL DOSING ([4]; 33.0 μmol/kg/day): 0 | activity on oral administration, furan series (in words) ([2]; immunosuppressed rat model): effective | drug uptake on oral dosage (suggested by the values for the cyst counts) ([2]; rat, in vivo, po): superior to that of the parent compound 9

NC(=NO)c1ccc(OCCCCOc2ccc(C(N)=NO)cc2)cc1.O=C(O)/C=C\C(=O)O.O=C(O)/C=C\C(=O)O [Compound 3, 1,4-bis(4′-(N-hydroxyamidino)phenoxy)butanedi-maleinate]
metabolism in intact BRL 3A hepatocytes [5]: metabolized predominantly to the corresponding diamidine | anti-P. carinii activity / mean cyst counts when given intravenously (in words) ([2]; Formula I amidoximes, intravenous): significantly reduced compared to saline controls | anti-P. carinii activity when given orally (in words) [2]: most active | % saline, ORAL DOSING ([2]; Table 2): 1.43 % saline | % saline, IV DOSING ([2]; Table 2): 0.12 % saline | metabolism by rat liver homogenate 9000×g supernatants [6]: metabolized similarly

N=C(N)c1ccc(OCCCOc2ccc(C(=N)N)cc2)cc1 [Compound 6, 1,3-bis(4′-amidinophenoxy)propane]
intravenous activity of diamidines (in words) [1]: previously shown to have intravenous activity | mean histological score, IV DOSING [1]: 0.9 | anti-P. carinii activity when given orally (in words) [2]: reduced or no anti-P. carinii activity | relative acute toxicity among the diamidines [3]: less acutely toxic than pentamidine
